Source: ChEMBL document CHEMBL3751734, “Late-stage optimization of a tercyclic class of S1P3-sparing, S1P1 receptor agonists” (Bioorg Med Chem Lett, 2016)
Values after ≈ are worked out from the molar mass of the structure shown.

Assays:
[1] = Kinetic solubility of the compound in buffer at pH 7.4 after 16 to 19 hrs by UV absorbance assay; format: physicochemical; settings: read-out: Kinetic_solubility
[2] = biological target: Sphingosine 1-phosphate receptor 1 (Homo sapiens, UniProt P21453); assay: Agonist activity at human S1P1 receptor expressed in EDG1-bla U2OS cells incubated for 18 hrs prior to GenBlazer substrate addition by beta-arrestin recruitment assay; format: cell-based
[3] = biological target: Sphingosine 1-phosphate receptor 3 (Homo sapiens, UniProt Q99500); assay: Agonist activity at human S1P3 receptor expressed in EDG3-bla U2OS cells incubated for 18 hrs prior to GenBlazer substrate addition by beta-arrestin recruitment assay; format: cell-based
[4] = species on record: Homo sapiens; assay: Selectivity ratio of EC50 for human S1P5 receptor to EC50 for human S1P1 receptor
[5] = Equilibrium solubility of the compound in citric acid monohydrate/Na2HPO4 dihydrate buffer at pH 6.8 after 24 hrs by RP-HPLC analysis; format: physicochemical
[6] = biological target: Sphingosine 1-phosphate receptor 5 (Homo sapiens, UniProt Q9H228); assay: Agonist activity at human S1P5 receptor expressed in EDG8-bla U2OS cells incubated for 18 hrs prior to GenBlazer substrate addition by beta-arrestin recruitment assay; format: cell-based
[7] = Ratio of drug level in brain to plasma (unknown origin); format: ADME, cell-free; settings: read-out: BPR

Sphingosine 1-phosphate receptor 1, sequence (P21453 whole entry): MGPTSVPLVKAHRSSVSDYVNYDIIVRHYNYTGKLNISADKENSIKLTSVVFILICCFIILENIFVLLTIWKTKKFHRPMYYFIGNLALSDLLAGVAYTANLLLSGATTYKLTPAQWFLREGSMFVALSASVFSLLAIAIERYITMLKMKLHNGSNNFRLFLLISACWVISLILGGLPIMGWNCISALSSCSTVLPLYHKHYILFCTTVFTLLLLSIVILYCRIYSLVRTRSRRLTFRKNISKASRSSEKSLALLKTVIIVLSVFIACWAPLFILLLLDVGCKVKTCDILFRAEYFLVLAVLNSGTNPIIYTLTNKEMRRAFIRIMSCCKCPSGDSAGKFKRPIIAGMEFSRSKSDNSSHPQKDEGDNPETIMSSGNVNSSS
Sphingosine 1-phosphate receptor 5, sequence (Q9H228 whole entry): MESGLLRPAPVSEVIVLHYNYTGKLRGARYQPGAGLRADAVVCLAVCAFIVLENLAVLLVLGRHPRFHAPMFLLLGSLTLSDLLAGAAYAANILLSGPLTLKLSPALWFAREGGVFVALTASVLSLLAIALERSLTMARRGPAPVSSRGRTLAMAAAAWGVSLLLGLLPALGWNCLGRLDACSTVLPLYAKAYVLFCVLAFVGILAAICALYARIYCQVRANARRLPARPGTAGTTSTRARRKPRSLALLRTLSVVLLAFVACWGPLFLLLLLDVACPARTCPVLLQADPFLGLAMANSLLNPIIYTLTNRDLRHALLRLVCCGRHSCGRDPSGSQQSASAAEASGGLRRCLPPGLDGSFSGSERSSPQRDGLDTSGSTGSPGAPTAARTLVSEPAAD
Sphingosine 1-phosphate receptor 3, sequence (Q99500 whole entry): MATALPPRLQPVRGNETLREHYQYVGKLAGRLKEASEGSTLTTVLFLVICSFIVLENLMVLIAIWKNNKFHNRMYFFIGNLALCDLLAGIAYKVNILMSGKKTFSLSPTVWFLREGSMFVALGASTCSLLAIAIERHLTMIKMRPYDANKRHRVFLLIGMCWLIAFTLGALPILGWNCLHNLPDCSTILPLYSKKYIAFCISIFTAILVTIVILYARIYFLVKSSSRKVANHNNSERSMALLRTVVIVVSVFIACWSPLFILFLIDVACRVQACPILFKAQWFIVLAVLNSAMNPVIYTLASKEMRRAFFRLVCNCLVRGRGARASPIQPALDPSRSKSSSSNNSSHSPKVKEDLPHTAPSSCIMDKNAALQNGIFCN

SMILES | solubility kinetic [1] [µg/mL] | EC50 [2] [nM] | further results
Cc1cc(-c2nc(-c3ccc(OC[C@H]4COC(=O)N4)nc3)no2)cc(NC(C)C)n1 | 0.3 (≈ 0.731 µM) | 7.3 | –
Cc1cc(-c2nc(-c3ccc(O[C@H]4CCC(=O)NC4)c(C)n3)no2)cc(NC(C)C)n1 | > 40 | 42 | EC50 [3]: > 10000 nM; Ratio EC50 [4]: 7; solubility thermodynamic at 24 h [5]: 12 µg/mL (≈ 28.4 µM); EC50 [6]: 350 nM
CCCCCCCCCCCCC/C=C/[C@@H](O)[C@@H](N)COP(=O)(O)O | – | 2.8 | EC50 [3]: 79 nM
Cc1cc(-c2nnc(-c3cc(F)c(O[C@H]4COC[C@H]4O)cc3Cl)s2)cc(NC(C)C)n1 (racemic) | 0.2 (≈ 0.43 µM) | 147 | –
Cc1cc(-c2nc(-c3cc(F)c(O[C@H]4COC[C@H]4O)cc3Cl)no2)cc(NC(C)C)n1 (racemic) | 0.1 (≈ 0.223 µM) | 0.8 | –
Cc1cc(-c2nnc(-c3cc(F)c(OC[C@H](N)CO)cc3Cl)s2)cc(CC(C)C)n1 | 25 (≈ 55.4 µM) | 0.8 | –
CCOc1ncc(-c2nnc(-c3cc(F)c(OC[C@H](N)CO)cc3Cl)s2)cc1Cl | < 0.1 | 594 | –
CC(C)Oc1ncc(-c2nnc(-c3cc(F)c(OC[C@H](N)CO)cc3Cl)s2)cc1Cl | < 0.1 | 100 | –
Cc1cc(-c2nnc(-c3cc(F)c(O[C@H]4CCC(=O)NC4)cc3Cl)s2)cc(NC(C)C)n1 | 0.8 (≈ 1.68 µM) | 160 | –
Cc1cc(-c2nnc(-c3cc(F)c(OC[C@H](N)CO)cc3Cl)s2)cc(NC(C)C)n1 | 9 (≈ 19.9 µM) | 18 | –
Cc1cc(-c2nc(-c3ccc(OC[C@H]4COC(=O)N4)c(C)n3)no2)cc(CC(C)C)n1 | > 40 | 37 | –
Cc1cc(-c2nc(-c3ccc(OC[C@H]4COC(=O)N4)c(C)n3)no2)cc(NC(C)C)n1 | 17 (≈ 40.1 µM) | 7.9 | –
Cc1cc(-c2nc(-c3cc(F)c(OC[C@H](N)CO)cc3Cl)no2)cc(CC(C)C)n1 | – | 20 | –
Cc1cc(-c2nc(-c3cc(C)c(OC[C@@H]4CCC(=O)N4)c(C)n3)no2)cc(CC(C)C)n1 | > 40 | 11 | EC50 [3]: > 10000 nM; Ratio EC50 [4]: 7; solubility thermodynamic at 24 h [5]: 21 µg/mL (≈ 48.2 µM); EC50 [6]: 340 nM
Cc1cc(-c2nc(-c3cc(F)c(OC[C@H]4OCC[C@@H]4O)cc3Cl)no2)cc(NC(C)C)n1 | 0.1 (≈ 0.216 µM) | 6 | –
CC(C)Oc1ncc(-c2nnc(-c3cc(F)c(OC[C@H](N)CO)cc3Cl)s2)cc1C#N | < 0.1 | 13 | –
CC(C)Oc1ccc(-c2nc(-c3cc(F)c(OC[C@H](N)CO)cc3Cl)no2)cc1C#N | < 0.1 | 0.1 | –
Cc1nc(CC(C)C)cc(-c2nc(-c3cc(F)c(O[C@@H]4CCC(=O)N(C)C4)cc3Cl)no2)n1 | 26 (≈ 54.9 µM) | 32 | EC50 [3]: > 10000 nM; Ratio EC50 [4]: 7; Kp [7]: 0.1; solubility thermodynamic at 24 h [5]: 10 µg/mL (≈ 21.1 µM); EC50 [6]: 215 nM
Cc1cc(-c2nc(-c3cc(C)c(OC[C@H]4COC(=O)N4)cn3)no2)cc(NC(C)C)n1 | 0.2 (≈ 0.471 µM) | 18 | –
Cc1cc(-c2nnc(-c3cc(F)c(OC[C@H]4CCC(=O)N4)cc3Cl)s2)cc(NC(C)C)n1 | 0.9 (≈ 1.89 µM) | 330 | –
Cc1cc(-c2nc(-c3cc(F)c(O[C@H]4CCC(=O)NC4)cc3Cl)no2)cc(NC(C)C)n1 | 0.1 (≈ 0.217 µM) | 0.2 | –
CC(C)Oc1ncc(-c2nc(-c3cc(F)c(OC[C@H](N)CO)cc3Cl)no2)cc1Cl | < 0.1 | 13 | –
CC(=O)N1CCOC[C@@H]1COc1cc(Cl)c(-c2noc(-c3cc(C)nc(NC(C)C)c3)n2)cc1F | 0.1 (≈ 0.198 µM) | 4.1 | –
Cc1cc(-c2nc(-c3cc(F)c(OC[C@H](N)CO)cc3Cl)no2)cc(OC(C)C)n1 | 0.2 (≈ 0.458 µM) | 67 | –
Cc1cc(-c2nc(-c3cc(F)c(O[C@@H]4CNC(=O)C4)cc3Cl)no2)cc(NC(C)C)n1 | 0.1 (≈ 0.224 µM) | 3.5 | –
Cc1cc(-c2nnc(-c3cc(F)c(OC[C@H]4OCC[C@@H]4O)cc3Cl)s2)cc(NC(C)C)n1 | 0.9 (≈ 1.88 µM) | 250 | –

SMILES | solubility kinetic [1] [µg/mL] | EC50 [2] [nM] | further results
Cc1cc(-c2nc(-c3ccc(OC[C@H]4COC(=O)N4)cn3)no2)cc(NC(C)C)n1 | 0.9 (≈ 2.19 µM) | 120 | –
Cc1cc(-c2nc(-c3ccc(OC[C@H]4COC(=O)N4)c(F)c3)no2)cc(NC(C)C)n1 | 0.1 (≈ 0.234 µM) | 0.5 | –
CC(C)Cc1ccc(-c2nc(-c3ccc([C@@H](C)N[C@H]4C[C@@H](C(=O)O)C4)cc3)no2)cc1 | – | 1.9 | EC50 [3]: > 10000 nM
Cc1cc(-c2nc(-c3cc(F)c(OC[C@H]4CNC(=O)CO4)cc3Cl)no2)cc(NC(C)C)n1 | 0.1 (≈ 0.21 µM) | 14 | –
Cc1cc(-c2nnc(-c3cc(F)c(O[C@@H]4CNC(=O)C4)cc3Cl)s2)cc(NC(C)C)n1 | 0.6 (≈ 1.3 µM) | 560 | –
Cc1cc(-c2nnc(-c3cc(F)c(OC[C@H]4CNC(=O)CO4)cc3Cl)s2)cc(NC(C)C)n1 | 0.8 (≈ 1.63 µM) | 550 | –
CC(C)Oc1ccc(-c2nnc(-c3cc(F)c(OC[C@H](N)CO)cc3Cl)s2)cc1Cl | < 0.1 | 32 | EC50 [3]: > 10000 nM
Cc1cc(-c2nc(-c3cnc(OC[C@H]4COC(=O)N4)cn3)no2)cc(NC(C)C)n1 | 25 (≈ 60.8 µM) | 150 | –
CCCCCCCCc1ccc(CCC(N)(CO)CO)cc1 [FINGOLIMOD] | – | – | EC50 [3]: > 10000 nM
Cc1cc(-c2nc(-c3cnc(OC[C@H]4COC(=O)N4)c(C)n3)no2)cc(NC(C)C)n1 | 2 (≈ 4.7 µM) | 2.5 | –
CC(C)Oc1ncc(-c2nc(-c3cc(F)c(OC[C@H](N)CO)cc3Cl)no2)cc1C#N | < 0.1 | 0.5 | –
Cc1cc(-c2nnc(-c3cc(F)c(OC[C@H]4COC(=O)N4)cc3Cl)s2)cc(NC(C)C)n1 | 0.3 (≈ 0.628 µM) | 86 | –
Cc1cc(-c2nc(-c3cnc(OC[C@H]4COC(=O)N4)c(C)c3)no2)cc(CC(C)C)n1 | 0.9 (≈ 2.13 µM) | 1.4 | –
CC(C)Oc1ccc(-c2nc(-c3cc(F)c(OC[C@H](N)CO)cc3Cl)no2)cc1Cl | < 0.1 | 4.1 | EC50 [3]: > 10000 nM
Cc1cc(-c2nc(-c3cc(F)c(O[C@@H]4CCC(=O)NC4)cc3Cl)no2)cc(NC(C)C)n1 | 0.1 (≈ 0.217 µM) | 0.8 | –
Cc1cc(-c2nc(-c3cc(F)c(OC[C@H]4CCC(=O)N4)cc3Cl)no2)cc(NC(C)C)n1 | 0.1 (≈ 0.217 µM) | 0.8 | –
Cc1cc(-c2nc(-c3cnc(OC[C@H]4COC(=O)N4)cn3)no2)cc(CC(C)C)n1 | 27 (≈ 65.8 µM) | 200 | –
Cc1cc(-c2nc(-c3cc(F)c(OC[C@H](N)CO)cc3Cl)no2)cc(NC(C)C)n1 | 0.3 (≈ 0.688 µM) | 4 | –
Cc1nc(-c2nc(-c3cc(F)c(OC[C@H](N)CO)cc3Cl)no2)ccc1OC(C)C | 8 (≈ 18.3 µM) | 49 | –
Cc1cc(-c2nc(-c3ccc(OC[C@H]4COC(=O)N4)cc3)no2)cc(NC(C)C)n1 | 0.1 (≈ 0.244 µM) | 2.8 | –
Cc1cc(-c2nc(-c3cc(C)c(OC[C@H]4COC(=O)N4)cn3)no2)cc(CC(C)C)n1 | 23 (≈ 54.3 µM) | 63 | –
CC(=O)N1CCOC[C@@H]1COc1cc(Cl)c(-c2nnc(-c3cc(C)nc(NC(C)C)c3)s2)cc1F | 1 (≈ 1.92 µM) | 310 | –
Cc1nc(-c2nnc(-c3cc(F)c(OC[C@H](N)CO)cc3Cl)s2)ccc1OC(C)C | < 0.1 | 105 | –
CCOc1ncc(-c2nc(-c3cc(F)c(OC[C@H](N)CO)cc3Cl)no2)cc1Cl | < 0.1 | 62 | –
Cc1cc(-c2nnc(-c3cc(F)c(OC[C@H](N)CO)cc3Cl)s2)cc(OC(C)C)n1 | < 0.1 | 130 | –
Cc1cc(-c2nnc(-c3cc(F)c(O[C@@H]4CCC(=O)NC4)cc3Cl)s2)cc(NC(C)C)n1 | 1 (≈ 2.1 µM) | 300 | –
